Reference: patent publication US10711004B2 (Genentech, Inc., priority 2018, dated 2020)
pIC50: −log10 of the molar value. Where two headings read alike, the source gives them in different places.

Biological target: human TRPA1 channel (Homo sapiens (Human), UniProt O75762)
Assay: hTRPA1 CHO Ca2+ FLIPR Tetra assay, block of cinnamaldehyde induced calcium influx
Type: cell-based
Settings: CHO cells expressing TRPA1, Hill coefficient fixed to 1.5
How it was run: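 IC50 values come from fixed-Hill fits of inhibition of cinnamaldehyde-induced (about EC50 level) calcium influx measured by FLIPR Tetra. Before agonist, TRPA1-expressing CHO cells loaded with calcium indicator were exposed to compound for 10 or 90 min at room temperature in HEPES-buffered HBSS, pH 7.4, with 0.02% BSA.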

[1] = read-out: hTRPA1 IC50 (10 min), compounds incubated 10 minutes at room temperature before cinnamaldehyde agonist
[2] = read-out: hTRPA1 IC50 (90 min), compounds incubated 90 minutes at room temperature before cinnamaldehyde agonist

Sequence of human TRPA1 channel (O75762 whole entry): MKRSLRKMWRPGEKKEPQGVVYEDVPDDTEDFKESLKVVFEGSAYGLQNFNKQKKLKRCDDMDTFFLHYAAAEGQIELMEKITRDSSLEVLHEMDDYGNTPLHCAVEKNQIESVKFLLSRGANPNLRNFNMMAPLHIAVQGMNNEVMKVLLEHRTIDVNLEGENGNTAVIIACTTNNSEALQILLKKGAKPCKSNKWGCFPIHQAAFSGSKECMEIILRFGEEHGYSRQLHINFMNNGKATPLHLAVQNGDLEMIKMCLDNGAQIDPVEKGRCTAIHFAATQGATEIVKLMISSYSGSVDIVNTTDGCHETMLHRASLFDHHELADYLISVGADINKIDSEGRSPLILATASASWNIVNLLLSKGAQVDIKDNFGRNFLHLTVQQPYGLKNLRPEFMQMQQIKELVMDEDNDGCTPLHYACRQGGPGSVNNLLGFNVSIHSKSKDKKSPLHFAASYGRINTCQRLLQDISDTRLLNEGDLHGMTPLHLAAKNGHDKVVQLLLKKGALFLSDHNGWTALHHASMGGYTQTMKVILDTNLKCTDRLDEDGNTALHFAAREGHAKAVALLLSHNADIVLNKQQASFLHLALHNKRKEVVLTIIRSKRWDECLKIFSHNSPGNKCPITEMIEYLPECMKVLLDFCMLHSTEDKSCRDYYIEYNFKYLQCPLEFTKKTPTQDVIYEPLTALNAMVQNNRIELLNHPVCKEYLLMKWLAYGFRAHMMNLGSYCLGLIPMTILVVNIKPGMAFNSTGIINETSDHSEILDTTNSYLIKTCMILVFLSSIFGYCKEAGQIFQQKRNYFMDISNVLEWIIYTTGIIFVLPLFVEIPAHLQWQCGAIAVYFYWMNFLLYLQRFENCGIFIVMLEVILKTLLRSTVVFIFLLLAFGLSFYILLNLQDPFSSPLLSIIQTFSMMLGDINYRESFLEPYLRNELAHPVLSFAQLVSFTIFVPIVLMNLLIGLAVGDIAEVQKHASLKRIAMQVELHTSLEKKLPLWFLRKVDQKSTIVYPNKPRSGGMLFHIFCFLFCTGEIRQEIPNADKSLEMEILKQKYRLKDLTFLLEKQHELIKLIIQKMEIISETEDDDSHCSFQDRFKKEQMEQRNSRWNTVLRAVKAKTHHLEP

pIC50 [1] | pIC50 [2] | Compound
7.95 | 8.26 | Cn1cnc2ncn(Cc3nc([C@H]4C[C@H](C(F)(F)c5cccc(F)c5)C4)no3)c(=O)c21 (stereo in doubt) [Example Compound 248, 1-[[3-[trans-3-[difluoro-(3-fluorophenyl)methyl]cyclobutyl]-1,2,4-oxadiazol-5-yl]methyl]-7-methyl-purin-6-one]
6.85 | 6.89 | Cn1cnc2ncn(Cc3nc([C@H]4[C@@H]5C=C(c6ccc(Cl)cn6)C[C@@H]54)no3)c(=O)c21 [Example Compound 122, 1-((3-((1S,5S,6R)-3-(5-chloropyridin-2-yl)bicyclo[3.1.0]hex-2-en-6-yl)-1,2,4-oxadiazol-5-yl)methyl)-7-methyl-1,7-dihydro-6H-purin-6-one]
7.40 | – | Cn1cnc2ncn(Cc3nc([C@H]4C[C@H](Oc5ccc(F)cc5)C4)no3)c(=O)c21 [Example Compound 177, 1-((3-((1r,3r)-3-(4-fluorophenoxy)cyclobutyl)-1,2,4-oxadiazol-5-yl)methyl)-7-methyl-1,7-dihydro-6H-purin-6-one]
8.01 | – | Cn1cnc2ncn(Cc3nc([C@H]4[C@@H]5CN(c6ccc(F)c(Cl)c6)C[C@@H]54)no3)c(=O)c21
6.05 | – | Cn1cnc2ncn(Cc3nc([C@H]4C[C@H](c5cc(Cl)ccc5F)C4)no3)c(=O)c21 [Example Compound 209, 1-((3-((1r,3r)-3-(5-chloro-2-fluorophenyl)cyclobutyl)-1,2,4-oxadiazol-5-yl)methyl)-7-methyl-1,7-dihydro-6H-purin-6-one]
7.09 | – | Cc1cncc2ncn(Cc3nc([C@H]4[C@@H]5CN(c6cccc(Cl)c6)C[C@@H]54)no3)c(=O)c12
7.37 | 7.39 | Cn1cc(-c2cccc(N3C[C@@H]4[C@H](C3)[C@H]4c3noc(Cn4ncc5ncccc5c4=O)n3)c2)cn1 [Example Compound 169, 6-((3-((1R,5S,6r)-3-(3-(1-methyl-1H-pyrazol-4-yl)phenyl)-3-azabicyclo[3.1.0]hexan-6-yl)-1,2,4-oxadiazol-5-yl)methyl)pyrido[2,3-d]pyridazin-5(6H)-one]
7.41 | – | Cc1ccnc2ncn(Cc3nc([C@H]4[C@@H]5CN(c6ccccc6)C[C@@H]54)no3)c(=O)c12
7.41 | – | Cc1ccnc2ncn(Cc3nc([C@H]4C[C@](O)(c5ccc6ccccc6c5)C4)no3)c(=O)c12 [Example Compound 233, 3-((3-((1s,3s)-3-hydroxy-3-(naphthalen-2-yl)cyclobutyl)-1,2,4-oxadiazol-5-yl)methyl)-5-methylpyrido[2,3-d]pyrimidin-4(3H)-one]
8.09 | 8.46 | Cc1cnn2ncn(Cc3nc([C@H]4[C@@H]5CN(c6ccccc6)C[C@@H]54)no3)c(=O)c12 [Example Compound 95, 5-methyl-3-((3-((1R,5S,6r)-3-phenyl-3-azabicyclo[3.1.0]hexan-6-yl)-1,2,4-oxadiazol-5-yl)methyl)pyrazolo[5,1f][1,2,4]triazin-4(3H)-one]
7.22 | 7.30 | Cn1c(=O)ccc2ncn(Cc3nc([C@H]4[C@@H]5CN(c6cc(Cl)ccn6)C[C@@H]54)no3)c(=O)c21 [Example Compound 174, 3-((3-((1R,5S,6r)-3-(4-chloropyridin-2-yl)-3-azabicyclo[3.1.0]hexan-6-yl)-1,2,4-oxadiazol-5-yl)methyl)-5-methyl-3,5-dihydropyrido[3,2-d]pyrimidine-4,6-dione]
7.40 | 7.42 | O=c1c2cccnc2ncn1Cc1nc([C@H]2[C@@H]3CN(c4ccc(Cl)cn4)C[C@@H]32)no1 [Example Compound 151, 3-((3-((1R,5S,6r)-3-(5-chloropyridin-2-yl)-3-azabicyclo[3.1.0]hexan-6-yl)-1,2,4-oxadiazol-5-yl)methyl)pyrido[2,3-d]pyrimidin-4(3H)one]
6.93 | 7.11 | Cn1cnc2ncn(Cc3nc([C@@H]4[C@H]5C=C(c6ccccn6)C[C@H]54)no3)c(=O)c21 [Example Compound 128, 7-methyl-1-((3-((1R,5R,6S)-3-(pyridin-2-yl)bicyclo[3.1.0]hex-2-en-6-yl)-1,2,4-oxadiazol-5-yl)methyl)-1,7-dihydro-6H-purin-6-one]
7.98 | 8.28 | Nc1ccc2c(=O)n(Cc3nc([C@H]4[C@@H]5C=C(c6ccccc6)C[C@@H]54)no3)cnc2n1 [Example Compound 239, 7-amino-3-[[3-[(1S,5S,6R)-3-phenyl-6-bicyclo[3.1.0]hex-2-enyl]-1,2,4-oxadiazol-5-yl]methyl]pyrido[2,3-d]pyrimidin-4-one]
6.63 | 6.89 | Cn1cnc2ncn(Cc3nc([C@H]4[C@@H]5CN(c6cc(Cl)c(F)cn6)C[C@@H]54)no3)c(=O)c21 [Example Compound 170, 1-((3-((1R,5S,6r)-3-(4-chloro-5-fluoropyridin-2-yl)-3-azabicyclo[3.1.0]hexan-6-yl)-1,2,4-oxadiazol-5-yl)methyl)-7-methyl-1,7-dihydro-6H-purin-6-one]
7.44 | 7.47 | Cn1cnc2ncn(Cc3nc([C@@H]4[C@H]5C=C(c6ccc7scnc7c6)C[C@H]54)no3)c(=O)c21 [Example Compound 113, 1-((3-((1R,5R,6S)-3-(benzo[d]thiazol-5-yl)bicyclo[3.1.0]hex-2-en-6-yl)-1,2,4-oxadiazol-5-yl)methyl)-7-methyl-1,7-dihydro-6H-purin-6-one]
– | 8.32 | Cc1cncc2ncn(Cc3nc([C@H]4C[C@](O)(c5ccc6ccccc6c5)C4)no3)c(=O)c12 [Example Compound 232, 3-((3-((1s,3s)-3-hydroxy-3-(naphthalen-2-yl)cyclobutyl)-1,2,4-oxadiazol-5-yl)methyl)-5-methylpyrido[3,4-d]pyrimidin-4(3H)-one]
7.26 | 7.41 | N#Cc1ccc2c(=O)n(Cc3nc([C@@H]4[C@H]5C=C(c6ccccc6)C[C@H]54)no3)cnc2n1 [Example Compound 266, 4-oxo-3-[[3-[(1R,5R,6S)-3-phenyl-6-bicyclo[3.1.0]hex-2-enyl]-1,2,4-oxadiazol-5-yl]methyl]pyrido[2,3-d]pyrimidine-7-carbonitrile]
8.21 | 8.51 | Cn1nnc2ncn(Cc3nc([C@H]4[C@@H]5C=C(c6ccccc6)C[C@@H]54)no3)c(=O)c21 [Example Compound 108, 1-methyl-6-((3-((1 S,5 S,6R)-3-phenylbicyclo[3.1.0]hex-2-en-6-yl)-1,2,4-oxadiazol-5-yl)methyl)-1,6-dihydro-7H-[1,2,3]triazolo[4,5-d]pyrimidin-7-one]
7.19 | – | Cn1cnc2ncn(Cc3nc([C@H]4[C@@H]5CN(c6ccc(Cl)c(Cl)c6)C[C@@H]54)no3)c(=O)c21
7.60 | 7.80 | Cn1cnc2nnn(Cc3nc([C@H]4[C@@H]5C=C(c6ccccc6)C[C@@H]54)no3)c(=O)c21 [Example Compound 259, 5-methyl-3-[[3-[(1S,5S,6R)-3-phenyl-6-bicyclo[3.1.0]hex-2-enyl]-1,2,4-oxadiazol-5-yl]methyl]imidazo[4,5-d]triazin-4-one]
7.41 | – | COc1ccc([C@H]2C[C@H](c3noc(Cn4cnc5nccc(C)c5c4=O)n3)C2)cc1
